# Source: ChEMBL document CHEMBL1828505, “Bioactive components from the heartwood of Pterocarpus santalinus” (Bioorg Med Chem Lett, 2011)
# pIC50: −log10 of the molar value.
# Legend:
# [1] = Cytotoxicity against human KBVIN cells; assay type: functional, cell-based
# KB = experiment: Cytotoxicity against human KB cells; assay type: functional, cell-based
# A549 = experiment: Cytotoxicity against human A549 cells; assay type: functional, cell-based
# DU-145 = experiment: Cytotoxicity against human DU145 cells; assay type: functional, cell-based
# [2] = Cytotoxicity against human Hep3B cells; assay type: functional, cell-based, Hep 3B2
# HepG2 = experiment: Cytotoxicity against human HepG2 cells; assay type: functional, cell-based
# [3] = Antiinflammatory activity in human neutrophils assessed as inhibition of fMLP/CB-induced elastase release; assay type: functional, cell-based; conditions: Neutrophil
# [4] = Antiinflammatory activity in human neutrophils assessed as inhibition of fMLP/CB-indcued superoxide anion production; assay type: functional, cell-based; conditions: Neutrophil
# Neutrophil = experiment: Ratio of LY294002 IC50 to compound IC50 for inhibition of fMLP/CB-indcued elastase release in human neutrophils; assay type: functional
SMILES,pIC50 [1],pIC50 (KB),IC50 (A549),IC50 (DU-145),IC50 [1],IC50 (KB),pIC50 [2],pIC50 (HepG2),pIC50 [3],pIC50 [4],IC50 (HepG2),pIC50 (A549),Ratio IC50 (Neutrophil),pIC50 (DU-145)
COc1cc(O)c(C(=O)c2ccccc2)cc1O [CEAROIN],4.49,4.45,> 10 µg/mL,> 10 µg/mL,,,,,,,,,,
COc1cc2oc(=O)cc(-c3ccccc3)c2cc1O [DALBERGIN],,,> 10 µg/mL,> 10 µg/mL,> 10 µg/mL,> 10 µg/mL,,,,,,,,
COc1cccc2c1C(=O)c1c(O)c3c(c(O)c1C2=O)C[C@@](O)(C(=O)CO)C[C@@H]3O[C@H]1C[C@H](N)[C@H](O)[C@H](C)O1 [DOXORUBICIN],,,,,,,5.80,5.89,,,,,,
O=c1cc(N2CCOCC2)oc2c(-c3ccccc3)cccc12 [LY-294002],,,,,,,,,5.19,5.42,,,,
COC1=CC(=O)c2cc(-c3ccc(OC)c(O)c3)c3cc(O)c(OC)cc3c2C1=O [PTEROLINUS K],,,> 10 µg/mL,> 10 µg/mL,> 10 µg/mL,> 10 µg/mL,4.96,,5.37,6.00,> 10 µg/mL,,,
COc1ccc(C(=O)/C=C/c2cc(O)c(OC)cc2O)cc1O [PTEROLINUS L],4.65,4.76,,,,,4.68,4.69,6.02,,,4.66,6,4.53
